According to patent US12037324B2, “Biarylmethyl heterocycles” (Université de Montréal, priority 2016, dated 2024):
Like-named read-outs stand apart in the source and are kept apart here.

Columns and labels:
[1] = target: T1, AGTR1 (Homo sapiens, UniProt P30556); experiment: DiscoveRx β-arrestin2 recruitment assay (enzyme complementation, Pathunter CHO-K1 AGTR1 β-arrestin cell line); assay type: cell-based
T1 construct: host or cells: Pathunter CHO-K1 AGTR1 β-arrestin cell line (CHO-K1)
T1 sequence (P30556 1-359): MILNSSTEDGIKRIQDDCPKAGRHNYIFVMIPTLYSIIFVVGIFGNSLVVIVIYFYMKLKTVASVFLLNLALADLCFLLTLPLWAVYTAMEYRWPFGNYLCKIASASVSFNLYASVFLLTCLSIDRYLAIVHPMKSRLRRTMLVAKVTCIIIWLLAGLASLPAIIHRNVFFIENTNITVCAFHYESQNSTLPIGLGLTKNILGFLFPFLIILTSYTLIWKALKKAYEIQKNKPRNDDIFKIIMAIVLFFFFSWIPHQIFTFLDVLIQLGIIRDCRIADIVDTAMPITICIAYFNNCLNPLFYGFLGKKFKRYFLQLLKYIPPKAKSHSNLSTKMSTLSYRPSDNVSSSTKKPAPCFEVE
Procedure, shortened: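 Chemiluminescent enzyme-complementation read-out of β-arrestin2 recruitment to AGTR1 in engineered CHO-K1 cells after 90 min compound exposure at 37° C. Values are 4-parameter logistic EC50s in agonist mode, IC50s in antagonist mode, with efficacy relative to the maximal All response.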

[2] = target: T2, hAT1R (Homo sapiens, UniProt P30556); experiment: cell-based; settings: agonist mode; for EC50: read-out: BRET P63 EC50
T2 sequence (P30556 1-359): T1 sequence (P30556 1-359)

[3] = target: T2, hAT1R; experiment: cell-based; settings: section of the 42nd table ending at r951, example numbering restarts after the DiscoveRx section; read-out: β-arrestin2 EC50
[4] = target: T2, hAT1R; experiment: BRET Gq biosensor assay, agonist response, HEK293 cells; assay type: cell-based; settings: section of the 42nd table directly before the BRET P63 section
Procedure, shortened: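 Agonist EC50 derived from a 4-parameter fit of BRET2 ratio (GFP 515 nm/Rluc 410 nm), scaled between unstimulated control and maximal AngII response. Readings taken 5 min after compound addition at room temperature, with 2 μM coelenterazine, in HEK293 cells expressing hAT1R, Gαq-Rluc, Gβ1 and GFP-Gγ1 (transfected two days earlier).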

[5] = target: T2, hAT1R; experiment: BRET β-arrestin2 biosensor assay, higher receptor expression (hAT1R 5 ng/well), HEK293 cells; assay type: cell-based; settings: for EC50: High AT1R Expression
[6] = DiscoveRx β-arrestin2 recruitment
[7] = DiscoveRx β-arrestin2 recruitment, maximal response

Structure (SMILES) | EC50 [1, 6] [nM] | DiscoveRx β-arrestin2 Ymax (%) [1, 7] [%] | BRET P63 Ymax [2] [%] | EC50 [2] [nM] | EC50 [3] [nM] | EC50 [4] [nM] | BRET β-Arrestin2 High AT1R Expression Ymax (%) [5] [%] | EC50 [5] [nM] | DiscoveRx β-arrestin2 Ymax (%) [1, 6] [%] | EC50 [1] [nM]
CCc1nc2c(C)cc(C)nc2n1Cc1ccc(-c2cc(-c3ccccc3)ccc2-c2nn[nH]n2)cc1F [Example 264, 2-ethyl-3-((3-fluoro-6′-(2H-tetrazol-5-yl)-[1,1′:3′,1″-terphenyl]-4-yl)methyl)-5,7-dimethyl-3H-imidazo[4,5-b]pyridine] | 19.2 | 52.9 | 15.7 | 7.4 | 12.9 | 42.8 | – | – | – | –
CCc1nc2c(C)cc(C)nc2n1Cc1ccc(-c2cc(-c3ccccc3)ccc2-c2nn[nH]n2)c(F)c1 [Example 265] | 30.1 | 53.4 | 17.9 | 7 | 18.9 | 29.2 | – | – | – | –
CCc1nc2c(C)cc(C)nc2n1Cc1ccc(-c2cc(-c3cccc(C)c3)ccc2-c2nn[nH]n2)cc1F [Example 266] | 64.3 | 75.8 | 19.1 | 5.7 | 5.7 | 26.1 | – | – | – | –
CCc1nc2c(C)cc(C)nc2n1Cc1ccc(-c2cc(-c3cccc(C)c3)ccc2-c2nn[nH]n2)c(F)c1 [Example 267] | 9.8 | 62.5 | 17.7 | 7.5 | 8.2 | 36.6 | – | – | – | –
CCCCC(=O)N(Cc1ccc(-c2cc(-c3ccccn3)ccc2-c2nn[nH]n2)cc1)C1(C(=O)O)CCCCC1 [Example 293, 1-(N-((5′-(Pyridin-2-yl)-2′-(2H-tetrazol-5-yl)-[1,1′-biphenyl]-4-yl)methyl)pentanamido)cyclohexanecarboxylic acid] | 187 | 40.4 | – | > 100000 | – | 1240 | 70.2 | 136 | – | –
CCCCC(=O)N(Cc1ccc(-c2cc(-c3cccc(C)n3)ccc2-c2nn[nH]n2)cc1)C1(C(=O)O)CCCCC1 [Example 294] | 87.3 | 28.9 | – | > 100000 | – | 427 | 24.7 | 150 | – | –
CCCCC(=O)N(Cc1ccc(-c2cc(-c3cccc(OC)n3)ccc2-c2nn[nH]n2)cc1)C1(C(=O)O)CCCCC1 [Example 296] | 128 | 41.8 | 6.9 | 307 | – | 619 | 79.9 | 68.8 | – | –
CCCCC(=O)N(Cc1ccc(-c2cc(N3CCCC(C)C3)ccc2-c2nn[nH]n2)cc1)C1(C(=O)O)CCCCC1 (centres unmarked) [Example 297, 1-(N-((5′-(3-methylpiperidin-1-yl)-2′-(2H-tetrazol-5-yl)-[1,1′-biphenyl]-4-yl)methyl)pentanamido)cyclohexanecarboxylic acid] | 142 | 30.5 | – | > 100000 | – | 621 | 74.5 | 327 | – | –
CCCCC(=O)N(Cc1ccc(-c2cc(-c3ccccc3)ccc2-c2nn[nH]n2)cc1)C1(C(=O)O)CCN(c2ccccc2)CC1 [Example 298, 4-(N-((6′-(2H-Tetrazol-5-yl)-[1,1′:3′,1″-terphenyl]-4-yl)methyl)pentan-amido)-1-phenylpiperidine-4-carboxylic acid] | 278 | 31.3 | – | > 100000 | – | 958 | 68.8 | 270 | – | –
CCOc1nc2cccc(C(=O)O)c2n1Cc1ccc(-c2cc(-c3cc(C)ccn3)ccc2-c2noc(=O)[nH]2)cc1 [Example 299, 2-ethoxy-1-((5′-(4-methylpyridin-2-yl)-2′-(5-oxo-4,5-dihydro-1,2,4-oxadiazol-3-yl)-[1,1′-biphenyl]-4-yl)methyl)-1H-benzo[d]imidazole-7-carboxylic acid] | 7.7 | 83.0 | 31.7 | 4.9 | 4.7 | 21.3 | – | – | – | –
CCOc1nc2cccc(C(=O)O)c2n1Cc1ccc(-c2cc(-c3cc(OC(F)F)ccn3)ccc2-c2noc(=O)[nH]2)cc1 [Example 302] | 10.2 | 61.1 | 25.2 | 10.2 | 14.9 | 47.3 | – | – | – | –
CCOc1nc2cccc(C(=O)O)c2n1Cc1ccc(-c2cc(-c3ccccn3)ccc2-c2noc(=O)[nH]2)cc1 [Example 303] | 42.3 | 58.9 | 30.4 | 49.7 | 38.2 | 109 | – | – | – | –
CCOc1nc2cccc(C(=O)O)c2n1Cc1ccc(-c2cc(-c3cc(N(C)C)ccn3)ccc2-c2noc(=O)[nH]2)cc1 [Example 305] | 25.5 | 69.3 | 24.3 | 67 | 90.3 | 82.9 | – | – | – | –
CCOc1nc2cccc(C(=O)O)c2n1Cc1ccc(-c2cc(-c3cc(C)ccn3)ccc2-c2nn[nH]n2)cc1 [Example 309, 2-ethoxy-1-((5′-(4-methylpyridin-2-yl)-2′-(2H-tetrazol-5-yl)-[1,1′-biphenyl]-4-yl)methyl)-1H-benzo[d]imidazole-7-carboxylic acid] | 4.1 | 80.4 | 28.6 | 3.8 | 6.5 | 7.9 | – | – | – | –
CCCCc1nc(Cl)c(C(=O)O)n1Cc1ccc(-c2cc(-c3cccc4[nH]ccc34)ccc2-c2nn[nH]n2)cc1 [Example 392, 1-((5′-(1H-indol-4-yl)-2′-(2H-tetrazol-5-yl)-1,1,1′-biphenyll-4-yl)methyl)-2-butyl-4-chloro-1H-imidazole-5-carboxyimc acid] | 45.2 | 29.2 | – | > 100000 | – | 3320 | 79.1 | 17.2 | – | –
CCCCC(=O)N(Cc1ccc(-c2cc(-c3ccccn3)ccc2-c2nn[nH]n2)cc1)[C@H](C(=O)O)C(C)C [Example 443, (S)-3-Methyl-2-(N-((5′-(pyridin-2-yl)-2′-(2H-tetrazol-5-yl)-[1,1′-biphenyl]-4-yl)methyl)pentanamido)butanoic] | 124 | – | 4.5 | 365 | – | 77.1 | 83.9 | 153 | 36.5 | –
CCCCC(=O)N(Cc1ccc(-c2cc(-c3cccc(C)n3)ccc2-c2nn[nH]n2)cc1)[C@H](C(=O)O)C(C)C [Example 444] | 125 | – | – | > 100000 | – | 258 | 46.5 | 147 | 36.3 | –
CCCCC(=O)N(Cc1ccc(-c2cc(-c3cccc(OC)n3)ccc2-c2nn[nH]n2)cc1)[C@H](C(=O)O)C(C)C [Example 446] | 179 | – | 4.5 | 668 | – | > 100000 | 84.3 | 144 | 29.8 | –
CCCCC(=O)N(Cc1ccc(-c2cc(N3CCC(C)CC3)ccc2-c2nn[nH]n2)cc1)[C@H](C(=O)O)C(C)C [Example 447] | 295 | – | – | > 100000 | – | 1380 | 63.1 | 336 | 35.0 | –
CCCCC(=O)N(Cc1ccc(-c2cc(N3CCCC(C)C3)ccc2-c2nn[nH]n2)cc1)[C@H](C(=O)O)C(C)C (some centres unmarked) [Example 448] | 161 | – | – | > 100000 | – | 856 | 58.5 | 599 | 20.8 | –
CCCCC(=O)N(Cc1ccc(-c2cc(Nc3ccccc3)ccc2-c2nn[nH]n2)cc1)[C@H](C(=O)O)C(C)C [Example 449] | 263 | – | – | > 100000 | – | > 100000 | 30.1 | 345 | 17.8 | –
CCCCC1=NC2(CCCC2)C(=O)N1Cc1ccc(-c2cc(Oc3cc(C)ccn3)ccc2-c2nn[nH]n2)cc1 [Example 455] | 46.8 | – | – | – | 182 | 93.8 | – | – | 14.4 | > 100000
